Assay results published in patent publication US8895571B2, “Isoindolinone and pyrrolopyridinone derivatives as Akt inhibitors” (Incyte Corporation, priority 2011, dated 2014).

Legend:
Assay type in all cases: biochemical
Full length Akt3 = target: T1, Full length Akt3 (Homo sapiens, UniProt Q9Y243); test: In vitro Akt kinase enzymatic assay (HTRF), Akt3; settings: 0.6 nM Akt3, substrate solution with 5 mM ATP, 25° C. 1 hr
T1 construct: Full length Akt1 (cat #P2999), Akt2 (cat #PV3184), Akt3 (cat #PV3185); purchased PerkinElmer PV3185
Method: (§1) Compounds herein were tested for inhibitory activity of Akt targets according to the following in vitro assay. Full length Akt1 (cat #P2999), Akt2 (cat #PV3184), Akt3 (cat #PV3185), peptide substrate, Ulight-Crosstide (cat #TRF0106-M), Ultra-Europium anti-phospho-Crosstide (cat #TRF-0202-M), and 10×LANCE detection buffer (cat #CR97-100) were purchased from PerkinElmer. In general, assay buffer conditions were chosen based on obtaining optimal enzymatic and linear activities. The assay buffer contains 50 mM HEPES, 10 mM MgCl2, 5 mM DTT, 0.005% Tween20 at pH 7.8. Compound stock (0.001 mM) was prepared in DMSO. The compound plate was prepared by 3-fold and 11-point serial dilutions. 0.5 μL of the compound in DMSO was transferred from the compound plate to the assay plate. Enzyme solution (0.4 nM of Akt1, 0.6 nM of Akt2 or 0.6 nM of Akt3) was prepared in the assay buffer. Note that the enzyme concentration given is based on the given stock concentration reported by the vendor. 0.1 μM substrate solution was prepared in the assay buffer with addition of 5 mM ATP. 10 μL of the enzyme solution was added to the assay plate and then 10 μL of substrate solution was added to the assay plate. The plate was protected from light and the reaction was incubated at 25° C. for 1 hr. The reaction was stopped by adding 10 μL of a solution containing 30 mM EDTA, and 3 nM Ultra Europium anti-phospho Crosstide in 1× detection buffer. The plate was incubated for 15-30 min at room temperature and HTRF (homogenous time resolved fluorescence) was measured on a plate reader. Percentage of inhibition was calculated for each concentration and IC50 value was generated from curve fitting. See Table 8 for data related to compounds of the examples.

Full length PKA = target: T2, Full length PKA (Homo sapiens, UniProt P17612); test: PKA in vitro enzymatic assay (HTRF); settings: 0.035 nM enzyme solution, substrate solution with 5 mM ATP, 25° C. 1 hr
T2 construct: Full length PKA (cat #P2912); purchased Invitrogen P2912
Method: Full length PKA (cat #P2912), peptide substrate, fluorescein CREBtide peptide (cat #PV3508), Tb-Crebtide p-S133 Ab (cat #PV3566), and Lanthascreen TR-FRET Dilution Buffer stored (part # PV3574) were purchased from Invitrogen. In general, assay buffer conditions were chosen based on obtaining optimal and linear enzymatic activities. The assay buffer contains 50 mM HEPES, 10 mM MgCl2, 5 mM DTT, 0.005% Tween20 at pH 7.8. Compound stock (0.001 mM) was prepared in DMSO. The compound plate was prepared by 3-fold and 11-point serial dilutions. 0.5 μL of the compound in DMSO was transferred from the compound plate to the assay plate. 0.035 nM enzyme solution was prepared in the assay buffer. Note that the enzyme concentration given is based on the given stock concentration reported by the vendor. 0.1 μM substrate solution was prepared in the assay buffer with addition of 5 mM ATP. 10 μL of the enzyme solution was added to the assay plate and then 10 μL of substrate solution was added to the assay plate. The plate was protected from light and the reaction was incubated at 25° C. for 1 hr. The reaction was stopped by adding 10 μL of a solution containing 30 mM EDTA, and 1.5 nM Tb-Crebtide p-S133 Ab in 1× detection buffer. The plate was incubated for 15-30 min at room temperature and HTRF (homogenous time resolved fluorescence) was measured on a plate reader. Percentage of inhibition was calculated for each concentration and IC50 value was generated from curve fitting. See Table 8 for data related to compounds of the examples.

Full length Akt1 = target: T3, Full length Akt1 (Homo sapiens, UniProt P31749); test: In vitro Akt kinase enzymatic assay (HTRF), Akt1; settings: 0.4 nM Akt1, substrate solution with 5 mM ATP, 25° C. 1 hr
T3 construct: Full length Akt1 (cat #P2999); purchased PerkinElmer P2999
Method: as §1

Full length Akt2 = target: T4, Full length Akt2 (Homo sapiens, UniProt P31751); test: In vitro Akt kinase enzymatic assay (HTRF), Akt2; settings: 0.6 nM Akt2, substrate solution with 5 mM ATP, 25° C. 1 hr
T4 construct: Full length Akt1 (cat #P2999), Akt2 (cat #PV3184); purchased PerkinElmer PV3184
Method: as §1

T1 sequence (Q9Y243 whole entry): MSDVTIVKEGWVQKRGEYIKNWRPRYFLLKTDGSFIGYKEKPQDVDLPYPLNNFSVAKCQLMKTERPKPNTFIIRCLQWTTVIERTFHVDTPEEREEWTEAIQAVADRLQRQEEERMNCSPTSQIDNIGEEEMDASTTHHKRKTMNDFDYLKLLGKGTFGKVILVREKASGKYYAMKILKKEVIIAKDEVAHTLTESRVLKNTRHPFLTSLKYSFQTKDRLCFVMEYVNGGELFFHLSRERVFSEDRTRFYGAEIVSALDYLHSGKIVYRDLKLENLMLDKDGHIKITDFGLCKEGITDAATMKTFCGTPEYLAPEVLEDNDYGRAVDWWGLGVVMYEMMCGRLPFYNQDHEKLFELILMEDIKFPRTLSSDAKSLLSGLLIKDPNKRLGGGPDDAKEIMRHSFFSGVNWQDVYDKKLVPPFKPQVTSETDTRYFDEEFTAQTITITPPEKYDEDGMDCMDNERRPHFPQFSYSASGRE
T4 sequence (P31751 whole entry): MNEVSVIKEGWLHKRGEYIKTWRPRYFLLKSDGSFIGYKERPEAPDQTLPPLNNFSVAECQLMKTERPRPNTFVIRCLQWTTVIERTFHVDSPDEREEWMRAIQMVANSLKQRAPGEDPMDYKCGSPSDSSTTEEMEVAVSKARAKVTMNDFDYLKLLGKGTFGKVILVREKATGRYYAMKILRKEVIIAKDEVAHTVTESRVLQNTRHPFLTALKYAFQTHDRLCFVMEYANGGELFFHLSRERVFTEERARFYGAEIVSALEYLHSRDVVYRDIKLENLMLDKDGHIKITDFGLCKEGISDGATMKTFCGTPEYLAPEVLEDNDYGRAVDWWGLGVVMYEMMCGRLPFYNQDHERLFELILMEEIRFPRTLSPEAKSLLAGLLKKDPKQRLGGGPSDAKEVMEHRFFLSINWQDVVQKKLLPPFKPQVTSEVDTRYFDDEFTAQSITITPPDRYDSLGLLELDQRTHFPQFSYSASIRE
T3 sequence (P31749 whole entry): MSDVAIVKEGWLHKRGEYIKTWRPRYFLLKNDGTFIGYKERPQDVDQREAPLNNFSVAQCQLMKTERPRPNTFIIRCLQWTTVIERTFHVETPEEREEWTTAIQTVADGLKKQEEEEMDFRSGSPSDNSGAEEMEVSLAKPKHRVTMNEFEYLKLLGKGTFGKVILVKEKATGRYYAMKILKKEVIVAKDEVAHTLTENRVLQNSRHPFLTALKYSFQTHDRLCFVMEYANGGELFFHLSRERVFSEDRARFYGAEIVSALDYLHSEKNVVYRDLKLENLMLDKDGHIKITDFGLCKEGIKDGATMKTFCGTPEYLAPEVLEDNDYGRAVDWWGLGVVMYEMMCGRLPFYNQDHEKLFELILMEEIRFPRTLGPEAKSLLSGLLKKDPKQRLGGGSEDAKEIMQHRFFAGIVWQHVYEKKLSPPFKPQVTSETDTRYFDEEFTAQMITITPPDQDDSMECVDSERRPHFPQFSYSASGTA

Row | SMILES | IC50 (Full length Akt3) [µM] | IC50 (Full length PKA) [µM] | IC50 (Full length Akt1) [µM] | IC50 (Full length Akt2) [µM]
1 | Cn1ncc(-c2cncc(F)c2)c1-c1ccc2c(c1)CN([C@H](CN)Cc1cccc(F)c1)C2=O [Example 26, 2-[(1S)-2-amino-1-(3-fluorobenzyl)ethyl]-5-[4-(5-fluoropyridin-3-yl)-1-methyl-1H-pyrazol-5-yl]isoindolin-1-one] | > 5 | > 5 | > 5 | > 5
2 | CSCc1cnn(C)c1-c1ccc2c(c1)CN([C@H](CN)Cc1ccccc1)C2=O [Example 59, 2-[(1S)-2-amino-1-benzyl-ethyl]-5-[4-(methylthiomethyl)-1-methyl-1H-pyrazol-5-yl]isoindolin-1-one] | 0.5 to 5 | > 5 | < 0.5 | 0.5 to 5
3 | CCNC[C@H](Cc1cccc(F)c1)N1Cc2cc(-c3c(Cl)cnn3C)ccc2C1=O [Example 31, 5-(4-chloro-1-methyl-1H-pyrazol-5-yl)-2-[(1S)-2-(ethylamino)-1-(3-fluorobenzyl)ethyl]isoindolin-1-one] | 0.5 to 5 | > 5 | < 0.5 | 0.5 to 5
4 | Cn1cc(-c2cccc(C[C@@H](CN)N3Cc4cc(-c5c(Cl)cnn5C)ccc4C3=O)c2)cn1 [Example 70, 2-{(1S)-2-amino-1-[3-(1-methyl-1H-pyrazol-4-yl)benzyl]ethyl}-5-(4-chloro-1-methyl-1H-pyrazol-5-yl)isoindolin-1-one] | 0.5 to 5 | > 5 | < 0.5 | > 5
5 | CNC(=O)c1ccc(-c2cnn(C)c2-c2ccc3c(c2)CN([C@H](CN)Cc2cccc(F)c2)C3=O)cn1 [Example 29, 5-(5-{2-[(1S)-2-amino-1-(3-fluorobenzyl)ethyl]-1-oxo-2,3-dihydro-1H-isoindol-5-yl}-1-methyl-1H-pyrazol-4-yl)-N-methylpyridine-2-carboxamide] | > 5 | > 5 | 0.5 to 5 | > 5
6 | Cn1ncc(Cl)c1-c1ccc2c(n1)CN([C@H](CN)Cc1cccc(F)c1)C2=O [Example 109, 6-[(1S)-2-amino-1-(3-fluorobenzyl)ethyl]-2-(4-chloro-1-methyl-1H-pyrazol-5-yl)-6,7-dihydro-5H-pyrrolo[3,4-b]pyridin-5-one] | 0.5 to 5 | > 5 | < 0.5 | 0.5 to 5
7 | Cn1ncc(Cl)c1-c1ccc2c(c1)CN([C@H](CN)CC1CC1)C2=O [Example 137, 2-[(1S)-2-amino-1-(cyclopropylmethyl)ethyl]-5-(4-chloro-1-methyl-1H-pyrazol-5-yl)isoindolin-1-one] | 0.5 to 5 | > 5 | 0.5 to 5 | 0.5 to 5
8 | Cn1ncc(Cl)c1-c1ccc2c(c1)CN(C(CN)c1ccc(F)cc1)C2=O (centres unmarked) [Example 124, 2-[2-amino-1-(4-fluorophenyl)ethyl]-5-(4-chloro-1-methyl-1H-pyrazol-5-yl)isoindolin-1-one] | 0.5 to 5 | > 5 | 0.5 to 5 | 0.5 to 5
9 | Cn1nccc1-c1ccc2c(c1)CN([C@H](CN)Cc1cccc(-c3ccsc3)c1)C2=O [Example 84, 2-{(1S)-2-amino-1-[3-(3-thienyl)benzyl]ethyl}-5-(1-methyl-1H-pyrazol-5-yl)isoindolin-1-one] | 0.5 to 5 | > 5 | < 0.5 | 0.5 to 5
10 | Cn1nccc1-c1ccc2c(n1)CN([C@H](CN)Cc1cccc(F)c1)C2=O [Example 110, 6-[(1S)-2-amino-1-(3-fluorobenzyl)ethyl]-2-(1-methyl-1H-pyrazol-5-yl)-6,7-dihydro-5H-pyrrolo[3,4-b]pyridin-5-one] | 0.5 to 5 | > 5 | < 0.5 | 0.5 to 5
11 | CCCOCc1cnn(C)c1-c1cc2c(cn1)C(=O)N([C@H](CN)Cc1cccc(F)c1)C2 [Example 96, 2-[(1S)-2-amino-1-(3-fluorobenzyl)ethyl]-6-[4-(1-propoxymethyl)-1-methyl-1H-pyrazol-5-yl]-1,2-dihydro-3H-pyrrolo[3,4-c]pyridin-3-one] | < 0.5 | > 5 | < 0.5 | < 0.5
12 | COc1cc(C[C@@H](CN)N2Cc3cc(-c4c(Cl)cnn4C)ccc3C2=O)ccn1 [Example 64, 2-{(1S)-2-amino-1-[(2-methoxypyridin-4-yl)methyl]ethyl}-5-(4-chloro-1-methyl-1H-pyrazol-5-yl)isoindolin-1-one] | > 5 | > 5 | 0.5 to 5 | > 5
13 | Cn1nccc1-c1ccc2c(c1)CN([C@H](CN)CC1CC1)C2=O [Example 136, 2-[(1S)-2-amino-1-(cyclopropylmethyl)ethyl]-5-(1-methyl-1H-pyrazol-5-yl)isoindolin-1-one] | > 5 | > 5 | < 0.5 | 0.5 to 5
14 | CC(C)NC[C@H](Cc1cccc(F)c1)N1Cc2cc(-c3c(Cl)cnn3C)ccc2C1=O [Example 32, 5-(4-chloro-1-methyl-1H-pyrazol-5-yl)-2-[(1S)-1-(3-fluorobenzyl)-2-(isopropylamino)ethyl]isoindolin-1-one] | 0.5 to 5 | > 5 | 0.5 to 5 | 0.5 to 5
15 | Cn1ncc(Cl)c1-c1ncc2c(n1)CN([C@H](CN)Cc1ccccc1)C2=O [Example 113, 6-[(1S)-2-amino-1-benzyl-ethyl]-2-(4-chloro-1-methyl-1H-pyrazol-5-yl)-6,7-dihydro-5H-pyrrolo[3,4-d]pyrimidin-5-one] | 0.5 to 5 | > 5 | < 0.5 | 0.5 to 5
16 | COc1ccc(-c2cnn(C)c2-c2ccc3c(c2)CN([C@H](CN)Cc2cccc(F)c2)C3=O)cn1 [Example 28, 2-[(1S)-2-amino-1-(3-fluorobenzyl)ethyl]-5-[4-(6-methoxypyridin-3-yl)-1-methyl-1H-pyrazol-5-yl]isoindolin-1-one] | > 5 | > 5 | 0.5 to 5 | > 5
17 | Cn1ncc(-c2cncnc2)c1-c1ccc2c(c1)CN([C@H](CN)Cc1cccc(F)c1)C2=O [Example 23, 2-[(1S)-2-amino-1-(3-fluorobenzyl)ethyl]-5-(1-methyl-4-pyrimidin-5-yl-1H-pyrazol-5-yl)isoindolin-1-one] | > 5 | > 5 | > 5 | > 5
18 | COc1ccc(C(CN)N2Cc3cc(-c4c(Cl)cnn4C)ccc3C2=O)cc1 (centres unmarked) [Example 126, 2-[2-amino-1-(4-methoxyphenyl)ethyl]-5-(4-chloro-1-methyl-1H-pyrazol-5-yl)isoindolin-1-one] | > 5 | > 5 | > 5 | > 5
19 | CN(C)CC(c1ccccc1)N1Cc2cc(-c3ccnn3C)ccc2C1=O (centres unmarked) [Example 115] | > 5 | > 5 | 0.5 to 5 | > 5
20 | Cn1ncc(Cl)c1-c1ccc2c(c1)CN([C@H](CNC1CCOCC1)Cc1cccc(F)c1)C2=O [Example 36, 5-(4-chloro-1-methyl-1H-pyrazol-5-yl)-2-[(1S)-1-(3-fluorobenzyl)-2-(tetrahydro-2H-pyran-4-ylamino)ethyl]isoindolin-1-one] | > 5 | > 5 | 0.5 to 5 | 0.5 to 5
